18 molecules from PubChem BioAssay AID274 (DTP/NCI, 2004) can be followed below.

The structures appear in SMILES notation. Values joined by “and” are separate entries in the source; they are usually repeats but may differ in a detail not shown here. Identical values can stand only once. Toxic doses and inconclusive results are not listed.

The test system of the experiment is BDF1 mice, Lewis lung carcinoma iv, survival T/C. As to the kind of experiment: NCI In Vivo Anticancer Drug Screen. Data for tumor model Lewis Lung Carcinoma (intravenous) in B6D2F1 (BDF1) mice. The note with it: endpoint: median survival time, higher = longer survival. On the procedure: The antitumor activity of compounds was measured in mice bearing transplantable tumors. Survival or tumor size were measured and the results are expressed as the measurement made in the treated group (T) divided by the measurement made in the vehicle treated control group (C). The tumor model used in this assay is Lewis Lung Carcinoma (intravenous) in B6D2F1 (BDF1) mice

Where [1] appears, read: dose: 6.25 mg/kg/injection, schedule: Q01DX009 (ip), vehicle: saline with Tween-80.
Setting [2] is: dose: 12.5 mg/kg/injection, schedule: Q01DX009 (ip), vehicle: saline with Tween-80.
Setting [3] is: dose: 25.0 mg/kg/injection, schedule: Q01DX009 (ip), vehicle: saline with Tween-80.
Where [4] appears, read: dose: 50.0 mg/kg/injection, schedule: Q01DX009 (ip), vehicle: saline with Tween-80.
The mark [5] stands for this setting: dose: 6.25 mg/kg/injection, schedule: Q01DX009 (ip), vehicle: saline.
Setting [6] is: dose: 12.5 mg/kg/injection, schedule: Q01DX009 (ip), vehicle: saline.
Setting [7] is: dose: 25.0 mg/kg/injection, schedule: Q01DX009 (ip), vehicle: saline.
[8] abbreviates: dose: 50.0 mg/kg/injection, schedule: Q01DX009 (ip), vehicle: Klucel (hydroxypropylcellulose) (HPC).
[9] abbreviates: dose: 100.0 mg/kg/injection, schedule: Q01DX009 (ip), vehicle: Klucel (hydroxypropylcellulose) (HPC).
[10] abbreviates: dose: 200.0 mg/kg/injection, schedule: Q01DX009 (ip), vehicle: Klucel (hydroxypropylcellulose) (HPC).
Where [11] appears, read: dose: 400.0 mg/kg/injection, schedule: Q01DX009 (ip), vehicle: Klucel (hydroxypropylcellulose) (HPC).

As for `C[CH2][Ge]([CH2]C)[CH2]C.C[CH2][Ge]([CH2]C)[CH2]C.C[CH2][Ge]([CH2]C)[O][Ge]([CH2]C)[CH2]C`, the T/C runs as follows: under setting [1], 97 % of control; under setting [2], 96 % of control; under setting [3], 103 % of control; under setting [4], 100 % of control.

In the case of `O=C1C=CC(n2cc(F)c(=O)[nH]c2=O)O1` (stereo unspecified), the T/C is 106 % of control under setting [5]; 96 % of control under setting [6]; 103 % of control under setting [7]; 119 % of control (dose: 50.0 mg/kg/injection, schedule: Q01DX009 (ip), vehicle: saline).

Take `CNC(=O)c1cccc2c(Nc3ccc(NS(C)(=O)=O)cc3OC)c3cccc(C)c3nc12`: the T/C (dose: 0.39 mg/kg/injection, schedule: Q01DX009 (ip), vehicle: water) is 100 % of control; the T/C (dose: 1.56 mg/kg/injection, schedule: Q01DX009 (ip), vehicle: water) is 112 % of control; the T/C (dose: 3.12 mg/kg/injection, schedule: Q01DX009 (ip), vehicle: water) was 89 % of control.

Regarding `COCC(O)Cn1ccnc1[N+](=O)[O-]` (stereo unspecified), the T/C runs as follows: (dose: 12.5 mg/kg/injection, schedule: Q01DX009 (ip), vehicle: water) 96 % of control; (dose: 25.0 mg/kg/injection, schedule: Q01DX009 (ip), vehicle: water) 92 % of control; (dose: 50.0 mg/kg/injection, schedule: Q01DX009 (ip), vehicle: water) 96 % of control; (dose: 100.0 mg/kg/injection, schedule: Q01DX009 (ip), vehicle: water) 100 % of control; (dose: 200.0 mg/kg/injection, schedule: Q01DX009 (ip), vehicle: water) 92 % of control; (dose: 400.0 mg/kg/injection, schedule: Q01DX009 (ip), vehicle: water) 96 % of control.

As for `O=S(=O)(c1ccc(NC(C(O)C(O)C(O)C(O)CO)S(=O)(=O)O)cc1)c1ccc(NC(C(O)C(O)C(O)C(O)CO)S(=O)(=O)O)cc1` (stereo unspecified), the T/C by setting is: (dose: 72.0 mg/kg/injection, schedule: Q01DX007 (ip), vehicle: saline) 90 % of control; (dose: 102.9 mg/kg/injection, schedule: Q01DX007 (ip), vehicle: saline) 95 % of control; (dose: 147.0 mg/kg/injection, schedule: Q01DX007 (ip), vehicle: saline) 86 % of control; (dose: 210.0 mg/kg/injection, schedule: Q01DX007 (ip), vehicle: saline) 96 % of control; (dose: 300.0 mg/kg/injection, schedule: Q01DX007 (ip), vehicle: saline) 94 % of control.

With `CC(=O)O[C@@H]1[C@@H](O)C2=C3[C@]4(C)[C@@H]1C(C)(C)C(=O)C[C@@H]4[C@]3(O)[C@H](OC(C)=O)[C@@]1(C[C@@H]1C)C2=O`, the T/C runs as follows: (dose: 3.12 mg/kg/injection, schedule: Q01DX009 (ip), vehicle: saline with Tween-80) 97 % of control; under setting [1], 195 % of control; under setting [2], 162 % of control.

On to `CC(=O)OCC1OC(OC(C)=O)C(NC(=O)N(CCCl)N=O)C(OC(C)=O)C1OC(C)=O` (stereo unspecified), for which the T/C is, setting by setting: (dose: 0.75 mg/kg/injection, schedule: Q01DX009 (ip), vehicle: Klucel (hydroxypropylcellulose) (HPC)) 105 % of control; (dose: 1.5 mg/kg/injection, schedule: Q01DX009 (ip), vehicle: Klucel (hydroxypropylcellulose) (HPC)) 105 % of control; (dose: 3.0 mg/kg/injection, schedule: Q01DX009 (ip), vehicle: Klucel (hydroxypropylcellulose) (HPC)) 110 % of control; (dose: 6.0 mg/kg/injection, schedule: Q01DX009 (ip), vehicle: Klucel (hydroxypropylcellulose) (HPC)) 110 % of control.

With `Nc1ccn(C2OC(COP(=O)(O)O)C(O)C2O)c(=O)n1` (stereo unspecified), the T/C was 121 % of control (dose: 16.0 mg/kg/injection, schedule: Q01DX009 (ip), vehicle: saline) and 106 % of control (dose: 32.0 mg/kg/injection, schedule: Q01DX009 (ip), vehicle: saline).

Consider `COc1cc2ccnc(/C=N\NC(N)=S)c2cc1OC`, for which the T/C was 101 % of control under setting [3]; 97 % of control under setting [4]; 92 % of control (dose: 100.0 mg/kg/injection, schedule: Q01DX009 (ip), vehicle: saline with Tween-80); 103 % of control (dose: 200.0 mg/kg/injection, schedule: Q01DX009 (ip), vehicle: saline with Tween-80).

For the molecule `CC(C)=CC(=O)OC1C2C(C)=CC(=O)C(O)C2(C)C2C3(O)OCC24C(CC(=O)OC14)C(C)C3O` (stereo unspecified), the T/C reads like this: (dose: 0.25 mg/kg/injection, schedule: Q01DX009 (ip), vehicle: distilled water + Tween-80) 92 % of control; (dose: 0.5 mg/kg/injection, schedule: Q01DX009 (ip), vehicle: distilled water + Tween-80) 90 % of control; (dose: 1.0 mg/kg/injection, schedule: Q01DX009 (ip), vehicle: distilled water + Tween-80) 106 % of control; (dose: 2.0 mg/kg/injection, schedule: Q01DX009 (ip), vehicle: distilled water + Tween-80) 103 % of control.

Take `CC1=C(/C=C/C(C)=C/C=C/C(C)=C/C=O)C(C)(C)CCC1`: the T/C runs as follows: (dose: 4.0 mg/kg/injection, schedule: Q01DX005 (ip), vehicle: saline with Tween-80) 96 % of control; (dose: 8.0 mg/kg/injection, schedule: Q01DX005 (ip), vehicle: saline with Tween-80) 96 % of control and 109 % of control; (dose: 16.0 mg/kg/injection, schedule: Q01DX005 (ip), vehicle: saline with Tween-80) 95 % of control and 116 % of control; (dose: 32.0 mg/kg/injection, schedule: Q01DX005 (ip), vehicle: saline with Tween-80) 108 % of control; (dose: 64.0 mg/kg/injection, schedule: Q01DX005 (ip), vehicle: saline with Tween-80) 95 % of control and 96 % of control.

For the molecule `COc1cc(O)c2c(O)c3c(c4c2c1[C@]1(C4)C(C)=CCCC1(C)C)[C@H](O)[C@@]1(O)CC(=O)C(C(N)=O)=C(O)[C@@]1(O)C3=O`, the T/C is 112 % of control (dose: 1.56 mg/kg/injection, schedule: Q01DX009 (ip), vehicle: saline with Tween-80); 100 % of control (dose: 3.13 mg/kg/injection, schedule: Q01DX009 (ip), vehicle: saline with Tween-80); 103 % of control under setting [1]; 102 % of control under setting [2].

As for `COc1cc(C)c(C2NC(=O)c3ccccc3N2)cc1C` (stereo unspecified), the T/C is, setting by setting: (dose: 25.0 mg/kg/injection, schedule: Q01DX009 (ip), vehicle: Klucel (hydroxypropylcellulose) (HPC)) 105 % of control; under setting [8], 97 % of control; under setting [9], 92 % of control; under setting [10], 97 % of control; under setting [11], 101 % of control.

As to `CCOC(=O)C(N)C[S][Sn]([CH3])([CH3])[Cl]` (stereo unspecified), the T/C under setting [5] is 100 % of control, the T/C under setting [6] was 102 % of control and the T/C under setting [7] is 95 % of control.

For the molecule `CC1OC(=O)C(C(C)C)NC(=O)C(C(C)C)OC(=O)C(C(C)C)NC(=O)C(C)OC(=O)C(C(C)C)NC(=O)C(C(C)C)OC(=O)C(C(C)C)NC(=O)C(C)OC(=O)C(C(C)C)NC(=O)C(C(C)C)OC(=O)C(C(C)C)NC1=O` (stereo unspecified), the T/C was 94 % of control (dose: 1.25 mg/kg/injection, schedule: Q01DX009 (ip), vehicle: saline with Tween-80); 102 % of control (dose: 2.5 mg/kg/injection, schedule: Q01DX009 (ip), vehicle: saline with Tween-80); 98 % of control (dose: 5.0 mg/kg/injection, schedule: Q01DX009 (ip), vehicle: saline with Tween-80); 102 % of control (dose: 10.0 mg/kg/injection, schedule: Q01DX009 (ip), vehicle: saline with Tween-80); 89 % of control (dose: 20.0 mg/kg/injection, schedule: Q01DX009 (ip), vehicle: saline with Tween-80); 89 % of control (dose: 40.0 mg/kg/injection, schedule: Q01DX009 (ip), vehicle: saline with Tween-80).

As for `CS(C)=O`, the T/C runs as follows: (dose: 1.5 grams/kg/injection, schedule: Q01DX009 (ip), vehicle: saline) 98 % of control; (dose: 3.0 grams/kg/injection, schedule: Q01DX009 (ip), vehicle: saline) 96 % of control; (dose: 6.0 grams/kg/injection, schedule: Q01DX009 (ip), vehicle: saline) 96 % of control.

`CC(=O)Nc1ccc(Nc2ccc(C(=C3C=CC(=[N+](C)CCC#N)C=C3)c3ccc(N(C)CCC#N)cc3)cc2)cc1`: the T/C is, setting by setting: under setting [2], 101 % of control; under setting [3], 110 % of control.

For the molecule `O=Cc1ccc(C=O)c(Cl)c1`, the T/C under setting [8] was 101 % of control, the T/C under setting [9] is 100 % of control, the T/C under setting [10] is 105 % of control and the T/C under setting [11] was 95 % of control.
